Assay results: article PMC11045757, “Group 3 medulloblastoma transcriptional networks collapse under domain specific EP300/CBP inhibition” (Nature Communications, 2024)
“And” between values parts separate entries of the source, which are not always exact repeats. Equal entries are not always repeated. Where two headings read alike, the source gives them in different places.

Tests used:
CBP bromodomain [1] = biological target: T1, CBP bromodomain (Homo sapiens, UniProt Q92793); assay: Differential scanning fluorimetry (DSF) thermal shift; assay type: binding; conditions: for ∆Tm (°C) CBP / ΔTm (°C) CBP: DSF; for ∆Tm (°C) CBP: 5 μM protein, 100 μM compound, three independent experiments, average ± SD; for DSF ΔTm (°C): Figure 3C, DSF (values equal CBP column)
T1 construct: CBP (residues 1081-1197); 6xHis (cleaved yes); host or cells: E. coli BL21 (DE3) RIL
Protocol: (§1) After 18 h growth, the culture was harvested by centrifugation at 6000 × g for 25 min and stored at -80 °C. Harvested cell pellets were re-suspended in 50 mM Na/K phosphate buffer (pH 7.4) containing 100 mM NaCl, 40 mM imidazole, 0.01% w/v lysozyme and 0.01% v/v Triton X-100 at 4 °C for 1 h, subjected to sonication and the lysate was clarified by centrifugation (30,000 × g for 45 min at 4 °C). Proteins were purified by FPLC at 4 °C using columns and chromatography materials from GE Healthcare. […] Proteins were purified to homogeneity by size exclusion chromatography using Superdex 75 equilibrated with elution buffer (50 mM HEPES pH 7.5, 100 mM NaCl, 2 mM DTT). […] Pool fractions were combined, concentrated to 10–12 mg/ml, and aliquots were flash-frozen in liquid N2 and stored at −80 °C.
(§2) DSF experiments were performed with an Applied Biosystem StepOnePlus real-time PCR system (Thermo Fisher Scientific) using 96-well format plates, assayed in quadruplicate. For thermal shift determination, 5 μM protein was mixed with 100 μM compound in 50 mM HEPES, pH 7.5, 150 mM NaCl, 2 mM DTT, 2% DMSO, 5X SYPRO Orange (Thermo Fisher Scientific) in 20 μL reaction volumes.

CBP bromodomain [2] = assay: as above; assay type: binding; conditions: ΔTm (CBP)/ΔTm(BRD4)
Protocol: as §1, §2

[3] = tested on: HDMB03 (HDMBO3) group 3 medulloblastoma cells; assay: CellTiter-Glo dose-response growth assay; assay type: cell-based; conditions: HDMBO3 G3MB cell growth, read-out: IC50 (nM) HDMBO3
Protocol: CellTiter-Glo assay was performed as per the manufacturer’s instructions, at the noted timepoint after compound treatment or plating. For Kelly, TE617T, RhJT, NCIH2122, NCIH650 and 143B, 500 cells were plated in normal growth media per well in a 384-well plate (Corning). HDMB03 and MB002 cells were plated in growth media at 500 cells/well in a 384-well plate. […] Cells were incubated for the noted timepoints prior to performing CellTiter-Glo assay as per the manufacturer’s instructions, and reading plates on an Envision 2104 microplate reader.

[4] = biological target: GFP-tagged CBP bromodomain (Homo sapiens, UniProt Q92793); assay: Microscale thermophoresis (MST); assay type: binding; conditions: for Response (Dose Response Curve): MST raw response
Protocol: MST experiments were performed in a Monolith NT.115 Pico instrument (NanoTemper Technologies) following published procedures. […] MST traces were recorded using standard parameters: 5 s MST power off, 30 s MST power on and 5 s MST power off. Measurements were taken at -1-0 s (cold region) and 10 s (hot region) and data were analyzed using the NTAnalysis software.

EP300 bromodomain = biological target: T2, EP300 bromodomain (Homo sapiens, UniProt Q09472); assay: Differential scanning fluorimetry (DSF) thermal shift; assay type: binding; conditions: DSF; for ∆Tm (°C) EP300: 5 μM protein, 100 μM compound, three independent experiments, average ± SD; for ΔTm (°C) EP300: Figure 3B
T2 construct: 6xHis (cleaved yes); host or cells: E. coli BL21 (DE3) RIL
T2 sequence (Q09472 1048-1161): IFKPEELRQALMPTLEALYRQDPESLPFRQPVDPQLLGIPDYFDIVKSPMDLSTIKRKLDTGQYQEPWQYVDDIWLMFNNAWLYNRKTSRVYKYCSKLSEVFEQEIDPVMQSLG
Protocol: (§3) At OD600 of 0.6, the culture was cooled down to 18 °C and induced with 0.1 mM IPTG. After 18 h growth, the culture was harvested by centrifugation at 6000 × g for 25 min and stored at -80 °C. Harvested cell pellets were re-suspended in 50 mM Na/K phosphate buffer (pH 7.4) containing 100 mM NaCl, 40 mM imidazole, 0.01% w/v lysozyme and 0.01% v/v Triton X-100 at 4 °C for 1 h, subjected to sonication and the lysate was clarified by centrifugation (30,000 × g for 45 min at 4 °C). Proteins were purified by FPLC at 4 °C using columns and chromatography materials from GE Healthcare. […] Proteins were purified to homogeneity by size exclusion chromatography using Superdex 75 equilibrated with elution buffer (50 mM HEPES pH 7.5, 100 mM NaCl, 2 mM DTT). All BRDs eluted as monomeric protein and were of crystallization grade quality (>95% purity as judged by SDS-PAGE). Pool fractions were combined, concentrated to 10–12 mg/ml, and aliquots were flash-frozen in liquid N2 and stored at −80 °C.
as §2, with “volumes. Reaction mixtures were heated from 25 to 95 °C at 1 °C/min with fluorescence readings every 0.5 °C at 610 nm. The observed thermal shift (ΔTm) was recorded as the difference between the Tm of sample and DMSO reference wells.” for “volumes.”

BRD4-BD1 (BRD4-1) [5] = biological target: T3, BRD4-BD1 (BRD4-1) (Homo sapiens, UniProt O60885); assay: as above; assay type: binding; conditions: DSF; for ∆Tm (°C) BRD4-1: 5 μM protein, 100 μM compound, three independent experiments, average ± SD; for ΔTm (°C) BRD4-BD1: Figure 3A
T3 construct: BRD4-BD1 (residues 44-168); 6xHis (cleaved yes); host or cells: E. coli BL21 (DE3) RIL
Protocol: as §3
as §2, with “volumes. Reaction mixtures were heated from 25 to 95 °C at 1 °C/min with fluorescence readings every 0.5 °C at 610 nm. The observed thermal shift (ΔTm) was recorded as the difference between the Tm of sample and DMSO reference wells.” for “volumes.”

BRD4-BD1 (BRD4-1) [6] = biological target: T3, BRD4-BD1 (BRD4-1); assay: Isothermal titration calorimetry (ITC); assay type: binding; conditions: relative to CCS1477
Protocol: as §3
All experiments were conducted using an PEAQ-ITC calorimeter (Malvern Scientific). BRDs were buffer exchanged using PD10 columns (GE life sciences) into 50 mM HEPES pH7.5 and 100 mM NaCl (ITC buffer) before the experiment and concentrated to ∼10 mg/mL. Experiments were carried out in ITC buffer while stirring at 750 rpm through reverse titration. The microsyringe (40 μL load volume) was loaded with the protein sample (250–600 μM protein in ITC buffer) and inserted into the calorimetric cell (0.2 mL cell volume) consisting of compound (20–60 μM in ITC buffer). All titrations were conducted using an initial control injection of 0.2 μL followed by 13 identical injections (~3 μL per injection) with a duration of 2 s (per injection) and a spacing of 150 s between injections. The ratio of protein/compound was optimized to ensure complete saturation of the titrant before the final injection to ensure proper baseline determination. Data were corrected for dilution and analyzed using the MicroCal Origin software to determine the enthalpies of binding (ΔH) and binding constants as described. Thermodynamic parameters were calculated using the basic equation of thermodynamics (ΔG = ΔH − TΔS = −RTlnKB) where ΔG, ΔH and ΔS are the changes in free energy, enthalpy and entropy of binding, respectively. A single binding site model was used for all ligand-protein interactions.

[7] = three independent MST experiments, average ± SD, read-out: Kd (nM) CBP

T1 sequence (Q92793 1081-1197): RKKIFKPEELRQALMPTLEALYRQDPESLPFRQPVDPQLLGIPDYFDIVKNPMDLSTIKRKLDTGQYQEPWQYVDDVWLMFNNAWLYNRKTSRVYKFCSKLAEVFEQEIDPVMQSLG
Chain of GFP-tagged CBP bromodomain (Q92793 1085-1192 limits assumed): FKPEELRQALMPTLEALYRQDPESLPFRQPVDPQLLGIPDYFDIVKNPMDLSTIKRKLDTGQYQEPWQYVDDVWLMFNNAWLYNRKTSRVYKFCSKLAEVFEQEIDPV

| ∆Tm (°C) CBP (CBP bromodomain [1]) | ΔTm (°C) CBP (CBP bromodomain [1]; Figure 3A, CBP bromodomain) | ΔTm (°C) CBP (CBP bromodomain [1]; Figure 3B, CBP) | DSF ΔTm (°C) (CBP bromodomain [1]) | Kd [4, 7] | ∆Tm (°C) EP300 (EP300 bromodomain) | ΔTm (°C) EP300 (EP300 bromodomain) | ∆Tm (°C) BRD4-1 (BRD4-BD1 (BRD4-1) [5]) | ΔTm (°C) BRD4-BD1 (BRD4-BD1 (BRD4-1) [5]) | IC50 ([3]; Homo sapiens, HD-MB03) | SMILES | Ratio CBP/BRD4 of ∆Tm (CBP bromodomain [2]) | further results |
| --- | --- | --- | --- | --- | --- | --- | --- | --- | --- | --- | --- | --- |
| 14.6 ± 0.16 °C | 14.6 °C | 14.6 °C | 14.6 °C | 31.4 ± 14.2 nM | 14.8 ± 0.45 °C | 14.8 °C | 5.5 ± 0.17 °C | 5.5 °C | 108 ± 25 nM | COC1CCC(n2c(C3CCCC(=O)N3c3ccccc3)nc3cc(-c4c(C)noc4C)ccc32)CC1 (stereo not shown) [Compound 5] | 2.7 | Response (Dose Response Curve) ([4]; Dose 1.52588e-10, single replicate run, listed as iCBP-5): 914.717 and 915.838; Response (Dose Response Curve) ([4]; Dose 3.05176e-10, single replicate run, listed as iCBP-5): 915.243 and 914.96; Response (Dose Response Curve) ([4]; Dose 6.10352e-10, single replicate run, listed as iCBP-5): 914.396 and 915.476; Response (Dose Response Curve) ([4]; Dose 1.2207e-9, single replicate run, listed as iCBP-5): 915.983 and 915.524; Response (Dose Response Curve) ([4]; Dose 2.44141e-9, single replicate run, listed as iCBP-5): 915.86 and 916.029; Response (Dose Response Curve) ([4]; Dose 4.88281e-9, single replicate run, listed as iCBP-5): 914.611 and 915.107; Response (Dose Response Curve) ([4]; Dose 9.76563e-9, single replicate run, listed as iCBP-5): 914.911 and 914.67; Response (Dose Response Curve) ([4]; Dose 1.95313e-8, single replicate run, listed as iCBP-5): 915.602 and 914.588; Response (Dose Response Curve) ([4]; Dose 3.90625e-8, single replicate run, listed as iCBP-5): 913.799 and 914.854; Response (Dose Response Curve) ([4]; Dose 7.8125e-8, single replicate run, listed as iCBP-5): 913.08 and 913.563; Response (Dose Response Curve) ([4]; Dose 1.5625e-7, single replicate run, listed as iCBP-5): 911.965 and 911.667; Response (Dose Response Curve) ([4]; Dose 3.125e-7, single replicate run, listed as iCBP-5): 909.591 and 910.599; Response (Dose Response Curve) ([4]; Dose 6.25e-7, single replicate run, listed as iCBP-5): 911.215 and 910.906; Response (Dose Response Curve) ([4]; Dose 1.25e-6, single replicate run, listed as iCBP-5): 911.169 and 911.287; Response (Dose Response Curve) ([4]; Dose 2.5e-6, single replicate run, listed as iCBP-5): 914.21 and 911.877; Response (Dose Response Curve) ([4]; Dose 5e-6, single replicate run, listed as iCBP-5): 912.484 and 912.12; Kd ([4]; MST, single replicate run, target clGFP-CBPBRD, TargetConcentration 5e-8, MST-Power Medium, unit inferred, read-out: Kd (Fit Results, Fit Model: Kd)): 16.1 nM and 33.7 nM; Bound (Fit Results) ([4]; fitted MST response of bound state, single replicate run, target clGFP-CBPBRD 5e-8, listed as iCBP-5): 911.766 and 911.236; Unbound (Fit Results) ([4]; fitted MST response of unbound state, single replicate run, target clGFP-CBPBRD 5e-8, listed as iCBP-5): 915.376 and 915.584; loss of binding affinity (CBP) ([4]; relative to CCS1477): ~ 10 fold |
| 15.3 ± 0.2 °C | – | – | – | 30 ± 21.6 nM | 14.3 ± 0.19 °C | – | 3.2 ± 0.13 °C | – | 558 ± 335 nM | COC1CCC(n2c(C3CCCC(=O)N3c3cccc(C(C)(C)C)c3)nc3cc(-c4c(C)noc4C)ccc32)CC1 (stereo not shown) [Compound 6] | 4.8 | – |
| 15.5 ± 0.14 °C | 15.5 °C | 15.5 °C | 15.5 °C | 17 nM and 16.9 nM | 13.5 ± 0.89 °C | 13.5 °C | 6.9 ± 0.23 °C | 6.9 °C | 452 ± 217 nM | COC1CCC(n2c(C3CCCC(=O)N3c3ccc4c(c3)OCCO4)nc3cc(-c4c(C)noc4C)ccc32)CC1 (stereo not shown) [Compound 7] | 2.2 | Kd ([4]; MO.Affinity Analysis export, single runs, target clGFP-CBPBRD 5e-8, unit inferred, read-out: Kd (fit result of individual MST run)): 15.5 nM and 27.7 nM and 7.4 nM |

| SMILES | ∆Tm (°C) CBP (CBP bromodomain [1]) | ΔTm (°C) CBP (CBP bromodomain [1]; Figure 3A, CBP bromodomain) | ΔTm (°C) CBP (CBP bromodomain [1]; Figure 3B, CBP) | DSF ΔTm (°C) (CBP bromodomain [1]) | Kd [4, 7] | ∆Tm (°C) EP300 (EP300 bromodomain) | ΔTm (°C) EP300 (EP300 bromodomain) | ∆Tm (°C) BRD4-1 (BRD4-BD1 (BRD4-1) [5]) | ΔTm (°C) BRD4-BD1 (BRD4-BD1 (BRD4-1) [5]) | IC50 ([3]; Homo sapiens, HD-MB03) | Ratio CBP/BRD4 of ∆Tm (CBP bromodomain [2]) | further results |
| --- | --- | --- | --- | --- | --- | --- | --- | --- | --- | --- | --- | --- |
| COC1CCC(n2c(C3CCCC(=O)N3)nc3cc(-c4c(C)noc4C)ccc32)CC1 (stereo not shown) [Compound 2] | 5.6 ± 0.05 °C | 5.6 °C | 5.6 °C | 5.6 °C | 1770 ± 234 nM | 5.6 ± 0.12 °C | 5.6 °C | 2.9 ± 0.11 °C | 2.9 °C | – | 1.9 | ∆Tm (°C) CBP (CBP bromodomain [1]; listed as CCS1447int2): 5.6 °C; IC50 [3]: > 100000 nM; Kd ([4]; MO.Affinity Analysis export, single runs, target clGFP-CBPBRD 5e-8, unit inferred, listed as CCS1477int2, read-out: Kd (fit result of individual MST run)): 1770 nM and 1540 nM and 2010 nM; ∆Tm (°C) BRD4-1 (BRD4-BD1 (BRD4-1) [5]; listed as CCS1447int2): 2.9 °C; reduction of activity against BRD4 (BRD4-BD1 (BRD4-1) [6]): ~ 10 fold |
